According to paper PMC3653948, “PDZ Domain-Mediated Interactions of G Protein-Coupled Receptors with Postsynaptic Density Protein 95: Quantitative Characterization of Interactions” (PLoS ONE, 2013):
pKd: −log10 of the molar value. Peptide text beside a SMILES is read from it.

Columns and labels:
PSD-95 PDZ1 = molecular target: T1, PSD-95 PDZ1 (Homo sapiens, UniProt P78352); assay: SPR steady-state binding to immobilized PSD-95 PDZ1
T1 construct: PSD-95 PDZ1 (aa 61–151); made in house; host or cells: E. coli One Shot BL21 Star (DE3)
From the text: (§1) To confirm the affinities measured by FP using an orthogonal method and to get information about the kinetics of the GPCR–PDZ interactions, we used SPR. This label-free, surface sensitive technique measures the binding of a ligand to an immobilized protein as a function of time based on refractive index changes.
(§2) For each of the PSD-95 PDZ domains, we determined the K d and the stability of the complexes for selected GPCR C-tail peptides. The residence time τ ( = 1/k d) was used as a convenient measure of the stability of the complexes. […] The K d determined from the steady-state responses of a range of C-tail peptide concentrations (Figure 2B and Table S4) correlated well with the K i values obtained by FP (Figure S1).
(§3) A Biacore X100 (GE Healthcare) SPR instrument equilibrated to 25.0°C and equipped with a Sensor Chip CM5 (for PDZ1 and PDZ2) or CM4 (for PDZ3) (GE Healthcare) was used for the SPR measurements. The running buffer was HBS-EP+ (10 mM HEPES pH 7.4, 150 mM NaCl, 3 mM EDTA, 0.05% Surfactant P-20 (GE Healthcare)).
PDZ domains were immobilized by amine coupling at a flow rate of 5 µl/min on a surface activated by a 7 min injection of a 1∶1 mixture of 0.4 M 1-ethyl-3-(3-dimethylaminopropyl) carbodiimide (EDC) and 0.1 M N-hydroxysuccinimide (NHS). The remaining active groups were deactivated by a 7 min injection of 1 M ethanolamine HCl pH 8.5. 750 RU PDZ1, 780 RU PDZ2, and 410 RU PDZ3 were immobilized.
GPCR C-tail peptide samples were injected in increasing concentrations for 1 min with 1 min dissociation time at 30 µl/min. Reproducibility was tested by injecting the 20 µM sample again after the highest concentration sample. The binding curves were corrected by subtraction of buffer blanks and the response from a reference surface that was activated with EDC and NHS and deactivated with ethanolamine like the surface with immobilized PDZ domain. For peptides with a cysteine, 1 mM dithiothreitol (DTT) was added to the samples. Steady-state response curves were plotted from the responses 10 s before injection end. The K d was determined by fitting steady-state response curves to a 1∶1 binding model with a linear component to corrrect for low affinity binding, probably resulting from the immobilization: Y = Ymax × X/(X+K d)+B × X.

PSD-95 PDZ3 = molecular target: T2, PSD-95 PDZ3 (Homo sapiens, UniProt P78352); assay: SPR steady-state binding to immobilized PSD-95 PDZ3
T2 construct: made in house; host or cells: E. coli One Shot BL21 Star (DE3)
From the text: as §1, §2
as §3, with “Healthcare)). […]” for “Healthcare)).”
(§4) GPCR C-tail peptide samples were injected in increasing concentrations for 1 min with 1 min dissociation time at 30 µl/min. […] The K d was determined by fitting steady-state response curves to a 1∶1 binding model with a linear component to corrrect for low affinity binding, probably resulting from the immobilization: Y = Ymax × X/(X+K d)+B × X.

PSD-95 PDZ2 = molecular target: T3, PSD-95 PDZ2 (Homo sapiens, UniProt P78352); assay: SPR steady-state binding to immobilized PSD-95 PDZ2
T3 construct: PDZ2 (aa 155–249); made in house; host or cells: E. coli One Shot BL21 Star (DE3)
From the text: as §1, §2
as §3, with “Healthcare)). […]” for “Healthcare)).”
as §4

PSD-95 = assay: FP competition assay, PSD-95 PDZ domains overall (strongest binding domain / non-binders); conditions: FP competition with the isolated PDZ domains, peptide typically 1–512 µM
Method: We used a competition set-up, where a constant concentration of isolated PSD-95 PDZ domain and a labeled reference ligand was titrated with unlabeled peptides from the GPCR C-tail library, typically within a 1–512 µM concentration range, and the resulting curves were fitted to obtain the IC50, which was used to calculate the K i (Figure 1). Three Cy5-labeled peptides with well-documented interactions with PSD-95 were used as reference ligands for the competition assay: Cy5-KIF1Bα was used for PDZ1 [20], Cy5-GluN2B (formerly known as NR2B) was used for PDZ2 and PDZ1-2 [21], and Cy5-CRIPT was used for PDZ3 [22] (Table S1). Competition with unlabeled versions of the reference ligands was used to validate the FP assay by comparison with the literature (Table S2).
FP measurements were performed in black, flat bottom 384-well NBS microplates (Corning) on a Synergy H4 microplatereader (BioTek Instruments) equipped with a 620/40 nm excitation filter, a 680/30 nm emission filter, and a 660 nm dichroic mirror. Polarization values were corrected with blank samples and samples with fluorescent probe alone. At least 10 data points were measured for each curve, and each data point was measured in triplicate. 25 nM Cy5-labeled probe was used for each assay: Cy5-KIF1Bα for PDZ1, Cy5-GluN2B for PDZ2 and PDZ1-2, and Cy5-CRIPT for PDZ3. All FP measurements were performed in a buffer containing 10 mM HEPES pH 7.4, 150 mM NaCl, and 1% BSA and incubated at least 15 min at room temperature before reading. The signal was stable for more than an hour, showing that the reaction was at equilibrium.
For the competition binding curves, probe was mixed with a constant concentration of PDZ protein corresponding to the K d and a twofold dilution series of unlabeled peptide in a total volume of 30 µl. The baseline was determined using a sample containing only probe. The IC50 was determined by fitting to a 1∶1 binding model: Y = Ymax − Ymax × X/(X+IC50). The K i was calculated from the IC50 and from the K d for the interaction between the PDZ protein and the probe as described previously.

PSD-95 PDZ domains = assay: Time-resolved SPR, PSD-95 PDZ domains (kinetics); format: binding; conditions: 500 µM C-tail peptide, all three PDZ domains
From the text: as §2
For all combinations of PDZ domains and GPCR C-tail peptides, we observed dissociation of the complexes within the first second of the dissociation phase (Figure 2A) (faster than the time-resolution of the instrument), meaning that τ is less than 1 s (k d >1 s^−1). This implies that the GPCR–PDZ complexes are very transient, which is in agreement with previous work.
A Biacore X100 (GE Healthcare) SPR instrument equilibrated to 25.0°C and equipped with a Sensor Chip CM5 (for PDZ1 and PDZ2) or CM4 (for PDZ3) (GE Healthcare) was used for the SPR measurements. […]
as §4

CC[C@H](C)[C@H](NC(=O)[C@H](CO)NC(=O)[C@H](CO)NC(=O)[C@H](CCC(=O)O)NC(=O)[C@@H](NC(=O)[C@H](Cc1c[nH]c2ccccc12)NC(=O)[C@H](C)NC(=O)[C@H](CCCNC(=N)N)NC(=O)[C@H](CCCNC(=N)N)NC(=O)[C@H](CC(=O)O)NC(=O)[C@@H](N)CC(=O)O)[C@@H](C)O)C(=O)N[C@@H](CC(N)=O)C(=O)N[C@H](C(=O)O)[C@@H](C)O (H-DDRRAWTESSINT-OH; N-terminus assumed)
pKd (PSD-95 PDZ1): < 3.00 | pKd (PSD-95 PDZ3): < 3.00 | pKd (PSD-95 PDZ2): < 3.00 | Interaction with PSD-95 using fluorescence polarization (PSD-95): not to interact | Time-resolved binding to PSD-95 PDZ1, PDZ2 and PDZ3 by SPR (PSD-95 PDZ domains): did not interact
